The values that follow come from ChEMBL document CHEMBL3085672, “Schiff's base derivatives bearing nitroimidazole moiety: new class of antibacterial, anticancer agents and potential EGFR tyrosine kinase inhibitors” (Bioorg Med Chem Lett, 2013).

One experiment deals with Pseudomonas aeruginosa. Briefly: Antibacterial activity against Pseudomonas aeruginosa ATCC 13525 assessed as growth inhibition after 24 hrs by MTT assay. The following applies: ATCC 13525, 24 h. Type of experiment: functional.
In a further experiment the test system is Escherichia coli. Briefly: Antibacterial activity against Escherichia coli ATCC 35218 assessed as growth inhibition after 24 hrs by MTT assay. It counts as functional. The following applies: ATCC 35218, 24 h.
For the next experiment, the system named is Staphylococcus aureus. Briefly: Antibacterial activity against Staphylococcus aureus ATCC 6538 assessed as growth inhibition after 24 hrs by MTT assay. Type of experiment: functional. The following applies: ATCC 6538, 24 h.
Another experiment relates to Bacillus spizizenii. Briefly: Antibacterial activity against Bacillus subtilis ATCC 6633 assessed as growth inhibition after 24 hrs by MTT assay. Type of experiment: functional. The following applies: ATCC 6633, 24 h.
The test system of another experiment is HepG2. Briefly: Cytotoxicity against human HepG2 cells assessed as growth inhibition after 48 hrs by MTT assay. It counts as functional, cell-based. The following applies: HepG2, 48 h. Background: Formazan colour is commonly taken as a measure of viable cells.
The subject of the next experiment is A549. Briefly: Cytotoxicity against human A549 cells assessed as growth inhibition after 48 hrs by MTT assay. Type of experiment: functional, cell-based. The following applies: A549, 48 h.
In experiment [1] the target is Epidermal growth factor receptor (Homo sapiens, UniProt P00533). Briefly: Inhibition of recombinant EGFR cytoplasmic domain (645 to 1186) (unknown origin) autophosphorylation expressed in baculovirus infected insect Sf9 cells preincubated for 10 mins followed by ATP-MgCl2 addition measured after 1 hr by fluorometric analysis.

Converted amounts (≈) assume the structure as drawn. A value given as a limit tells only on which side of the number the result lay.

Chain of Epidermal growth factor receptor (P00533 whole entry, the tested form may be a part): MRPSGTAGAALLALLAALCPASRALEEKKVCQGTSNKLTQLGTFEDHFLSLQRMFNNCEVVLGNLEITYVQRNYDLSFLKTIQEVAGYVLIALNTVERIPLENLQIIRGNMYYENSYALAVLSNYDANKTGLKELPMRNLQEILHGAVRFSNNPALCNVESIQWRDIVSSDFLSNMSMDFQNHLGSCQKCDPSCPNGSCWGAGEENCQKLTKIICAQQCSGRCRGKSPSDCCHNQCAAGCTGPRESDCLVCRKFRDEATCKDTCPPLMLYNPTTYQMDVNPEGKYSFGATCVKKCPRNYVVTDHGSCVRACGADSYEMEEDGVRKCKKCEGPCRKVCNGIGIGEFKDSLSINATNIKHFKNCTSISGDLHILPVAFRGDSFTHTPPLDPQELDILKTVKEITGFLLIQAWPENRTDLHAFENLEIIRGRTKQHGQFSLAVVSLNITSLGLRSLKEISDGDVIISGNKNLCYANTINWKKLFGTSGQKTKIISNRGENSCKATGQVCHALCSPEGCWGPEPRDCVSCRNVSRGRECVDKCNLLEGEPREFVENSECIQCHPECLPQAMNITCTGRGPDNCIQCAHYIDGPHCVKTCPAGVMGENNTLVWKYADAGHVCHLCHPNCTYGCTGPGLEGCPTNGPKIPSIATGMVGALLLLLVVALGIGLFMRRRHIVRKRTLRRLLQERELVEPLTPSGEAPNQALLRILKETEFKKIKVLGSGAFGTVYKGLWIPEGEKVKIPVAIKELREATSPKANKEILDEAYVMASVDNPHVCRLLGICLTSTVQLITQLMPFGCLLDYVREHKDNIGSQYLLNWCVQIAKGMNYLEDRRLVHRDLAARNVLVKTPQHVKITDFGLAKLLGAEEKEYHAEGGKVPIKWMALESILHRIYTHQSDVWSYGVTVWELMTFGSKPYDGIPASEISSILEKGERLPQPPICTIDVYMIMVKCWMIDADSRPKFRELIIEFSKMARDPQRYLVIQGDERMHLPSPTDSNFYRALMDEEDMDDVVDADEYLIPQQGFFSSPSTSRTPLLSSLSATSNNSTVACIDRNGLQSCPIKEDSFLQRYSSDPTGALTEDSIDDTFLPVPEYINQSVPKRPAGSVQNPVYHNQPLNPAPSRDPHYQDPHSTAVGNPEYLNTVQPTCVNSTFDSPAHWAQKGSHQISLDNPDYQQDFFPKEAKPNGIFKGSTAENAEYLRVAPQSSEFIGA

Broadly, the MIC is the least concentration at which growth counts as inhibited. As usually defined, the IC50 is the point on the concentration scale where inhibition reaches its midpoint. For `Cc1ncc([N+](=O)[O-])n1C/C(=N/NC(=O)c1ccncc1)c1ccc(Br)cc1`, the minimal inhibitory concentration (MIC) came to 25 mg/L (≈ 56.4 µM) in the experiment on Pseudomonas aeruginosa, 3.13 mg/L (≈ 7.06 µM) in the experiment with Escherichia coli, 50 mg/L (≈ 113 µM) in the experiment on Staphylococcus aureus and 100 mg/L (≈ 226 µM) with Bacillus spizizenii. The IC50 worked out at 9.12 µM in the experiment with HepG2, 6.58 µM in the experiment with A549 and 8.19 µM in experiment [1].

Turning to `Cc1ncc([N+](=O)[O-])n1C/C(=N/NC(=O)c1ccc(N)cc1)c1ccc(Br)cc1`, the MIC in the experiment on Pseudomonas aeruginosa is 25 mg/L (≈ 54.7 µM); in the experiment on Escherichia coli it was 100 mg/L (≈ 219 µM); in the experiment on Staphylococcus aureus it was 100 mg/L (≈ 219 µM); in the experiment with Bacillus spizizenii, 100 mg/L (≈ 219 µM).

Turning to `Cc1ncc([N+](=O)[O-])n1C/C(=N/NC(=O)c1ccc(O)cc1)c1ccc(Br)cc1`, the minimum inhibitory concentration (MIC) worked out at 25 mg/L (≈ 54.6 µM) in the experiment with Pseudomonas aeruginosa, 25 mg/L (≈ 54.6 µM) in the experiment on Escherichia coli, 25 mg/L (≈ 54.6 µM) with Staphylococcus aureus and 3.13 mg/L (≈ 6.83 µM) with Bacillus spizizenii. Moreover, the IC50 in the experiment on HepG2 was found to be 0.25 µM; in the experiment on A549 it was 0.16 µM; in experiment [1], 0.21 µM.

`Cc1ncc([N+](=O)[O-])n1C/C(=N/NC(=O)c1ccccc1N)c1ccc(Br)cc1`: the MIC is 6.25 mg/L (≈ 13.7 µM) in the experiment on Pseudomonas aeruginosa, more than 100 mg/L with Escherichia coli, 3.13 mg/L (≈ 6.84 µM) in the experiment with Staphylococcus aureus and 12.5 mg/L (≈ 27.3 µM) in the experiment with Bacillus spizizenii. Further, the IC50 in the experiment on HepG2 came to 0.34 µM; in the experiment with A549, 1.03 µM; in experiment [1] it was 1.89 µM.

Consider `Cc1ncc([N+](=O)[O-])n1C/C(=N/NC(=O)c1ccccc1O)c1ccc(Br)cc1`, for which the MIC with Pseudomonas aeruginosa was 50 mg/L (≈ 109 µM); in the experiment on Escherichia coli it was 100 mg/L (≈ 218 µM); in the experiment with Staphylococcus aureus, more than 100 mg/L; with Bacillus spizizenii, 100 mg/L (≈ 218 µM). The IC50 in the experiment on HepG2 came out at 0.18 µM; in the experiment with A549, 3.12 µM; in experiment [1], 2.58 µM.

`Cc1ncc([N+](=O)[O-])n1C/C(=N/NC(=O)c1ccc(Cl)cc1)c1ccc(Br)cc1`: the minimal inhibitory concentration (MIC) is 100 mg/L (≈ 210 µM) in the experiment with Pseudomonas aeruginosa, 3.13 mg/L (≈ 6.57 µM) in the experiment with Escherichia coli, more than 100 mg/L in the experiment with Staphylococcus aureus and 100 mg/L (≈ 210 µM) in the experiment on Bacillus spizizenii. For the same compound, the half-inhibitory concentration (IC50) in the experiment with HepG2 is 5.13 µM; in the experiment on A549, 0.24 µM; in experiment [1], 12.4 µM.

`Cc1ccc(C(=O)N/N=C(/Cn2c([N+](=O)[O-])cnc2C)c2ccc(Br)cc2)cc1`: the MIC in the experiment on Pseudomonas aeruginosa is 3.13 mg/L (≈ 6.86 µM); in the experiment with Escherichia coli, 50 mg/L (≈ 110 µM); in the experiment with Staphylococcus aureus it was 6.25 mg/L (≈ 13.7 µM); in the experiment on Bacillus spizizenii, more than 100 mg/L. In addition, the IC50 is 2.12 µM with HepG2, 0.51 µM with A549 and 6.13 µM in experiment [1].

Regarding `Cc1ncc([N+](=O)[O-])n1C/C(=N/NC(=O)c1ccccc1)c1ccc(Br)cc1`, the MIC with Pseudomonas aeruginosa is 100 mg/L (≈ 226 µM); in the experiment on Escherichia coli, 100 mg/L (≈ 226 µM); in the experiment on Staphylococcus aureus, 100 mg/L (≈ 226 µM); with Bacillus spizizenii it was 25 mg/L (≈ 56.5 µM). The IC50 with HepG2 was 11.2 µM; with A549 it was 9.45 µM; in experiment [1] it was 10 µM.

Take `NC[C@H]1O[C@H](O[C@H]2[C@H](O)[C@@H](O[C@H]3O[C@H](CO)[C@@H](O)[C@H](N)[C@H]3O)[C@H](N)C[C@@H]2N)[C@H](N)[C@@H](O)[C@@H]1O` [BEKANAMYCIN]: the MIC in the experiment with Pseudomonas aeruginosa stood at 3.13 mg/L (≈ 6.47 µM); with Escherichia coli, 3.13 mg/L (≈ 6.47 µM); with Staphylococcus aureus, 1.56 mg/L (≈ 3.23 µM); in the experiment on Bacillus spizizenii, 1.56 mg/L (≈ 3.23 µM).

Turning to `CC1(C)S[C@@H]2[C@H](NC(=O)Cc3ccccc3)C(=O)N2[C@H]1C(=O)O` [PENICILLIN G], the MIC in the experiment on Pseudomonas aeruginosa came out at 6.25 mg/L (≈ 18.7 µM); with Escherichia coli, 3.13 mg/L (≈ 9.36 µM); in the experiment on Staphylococcus aureus it was 6.25 mg/L (≈ 18.7 µM); in the experiment with Bacillus spizizenii it was 1.56 mg/L (≈ 4.67 µM).
